Data on 13 compounds can be found in ChEMBL document CHEMBL1221235, “Novel Notch-sparing gamma-secretase inhibitors derived from a peroxisome proliferator-activated receptor agonist library” (Bioorg Med Chem Lett, 2010).

SMILES strings stand for the structures. Calls of active or inactive are those of the source. The calls are words filed in the database; no cut-off is given here.

What is called residual activity is the signal under treatment as a percentage of the control signal. The IC50 is the point on the concentration scale where inhibition reaches its midpoint.

The target in test [1] is T1, Gamma-secretase (Homo sapiens) (UniProt Q96BI3+Q9NZ42+Q8WW43+P49768+Q92542+P49810). In words: Inhibition of gamma-secretase in HEK293 cells co-overexpressing APP Swedish mutant assessed as inhibition of amyloid beta 40 production at 100 uM by luciferase reporter gene assay relative to DAPT. In kind it is cell-based. The note with it: for residual activity: values are per cent of control. Background: A reporter such as luciferase makes a cellular process visible.

Test [2] deals with T1, Gamma-secretase (Homo sapiens). Put plainly: Inhibition of gamma-secretase in HEK293 cells co-overexpressing NotchdeltaE assessed as inhibition of notch cleavage at 100 uM by luciferase reporter gene assay relative to DAPT. The conditions noted are these: values are per cent of control. In kind it is cell-based.
Test [3] has the same target. In words: Inhibition of gamma-secretase in HEK293 cells co-overexpressing NotchdeltaE assessed as inhibition of notch cleavage at 1 uM by luciferase reporter gene assay relative to DAPT. The conditions noted are these: for residual activity: values are per cent of control. In kind it is cell-based.
For test [4] the target is unchanged. In words: Inhibition of gamma-secretase in HEK293 cells co-overexpressing APP Swedish mutant assessed as inhibition of amyloid beta 42 production at 100 uM by luciferase reporter gene assay relative to DAPT. In kind it is cell-based. The conditions noted are these: for residual activity: values are per cent of control.
Test [5] shares this target. Put plainly: Inhibition of gamma-secretase in HEK293 cells co-overexpressing APP Swedish mutant assessed as inhibition of amyloid beta 42 production at 1 uM by luciferase reporter gene assay relative to DAPT. In kind it is cell-based. The conditions noted are these: values are per cent of control.
Test [6] has the same target. Put plainly: Inhibition of gamma-secretase in HEK293 cells co-overexpressing APP Swedish mutant assessed as inhibition of amyloid beta 40 production at 1 uM by luciferase reporter gene assay relative to DAPT. In kind it is cell-based. The conditions noted are these: values are per cent of control.
In test [7] the target is Gamma-secretase. In words: Inhibition of gamma-secretase in HEK293 cells co-overexpressing APP Swedish mutant assessed as inhibition of amyloid beta 42 production by luciferase reporter gene assay. In kind it is cell-based, Homo sapiens.
The target of test [8] is Gamma-secretase. Put plainly: Inhibition of gamma-secretase in HEK293 cells co-overexpressing NotchdeltaE assessed as inhibition of notch cleavage by luciferase reporter gene assay. In kind it is cell-based, Homo sapiens.
For test [9], the target named is Gamma-secretase. In words: Inhibition of gamma-secretase in HEK293 cells co-overexpressing APP Swedish mutant assessed as inhibition of amyloid beta 40 production by luciferase reporter gene assay. In kind it is cell-based, Homo sapiens.
In test [10] the target is T1, Gamma-secretase (Homo sapiens). In words: Inhibition of gamma-secretase in HEK293 cells co-overexpressing APP Swedish mutant assessed as inhibition of amyloid beta 42 production at 30 uM by luciferase reporter gene assay relative to DAPT. In kind it is cell-based. The conditions noted are these: values are per cent of control.
The target is the same in test [11]. In words: Inhibition of gamma-secretase in HEK293 cells co-overexpressing APP Swedish mutant assessed as inhibition of amyloid beta 40 production at 3 uM by luciferase reporter gene assay relative to DAPT. In kind it is cell-based. The note with it: values are per cent of control.
The target is the same in test [12]. In words: Inhibition of gamma-secretase in HEK293 cells co-overexpressing APP Swedish mutant assessed as inhibition of amyloid beta 40 production at 30 uM by luciferase reporter gene assay relative to DAPT. In kind it is cell-based. The conditions noted are these: values are per cent of control.
The target is the same in test [13]. In words: Inhibition of gamma-secretase in HEK293 cells co-overexpressing APP Swedish mutant assessed as inhibition of amyloid beta 42 production at 3 uM by luciferase reporter gene assay relative to DAPT. In kind it is cell-based. The conditions noted are these: values are per cent of control.
The target is the same in test [14]. Put plainly: Inhibition of gamma-secretase in HEK293 cells co-overexpressing NotchdeltaE assessed as inhibition of notch cleavage at 3 uM by luciferase reporter gene assay relative to DAPT. In kind it is cell-based. The conditions noted are these: values are per cent of control.
Test [15] has the same target. In words: Inhibition of gamma-secretase in HEK293 cells co-overexpressing NotchdeltaE assessed as inhibition of notch cleavage at 30 uM by luciferase reporter gene assay relative to DAPT. In kind it is cell-based. The conditions noted are these: values are per cent of control.

Regarding `CCC(Cc1ccc(F)c(C(=O)NCc2ccc(C(F)(F)F)cc2)c1)C(=O)O` (stereo unspecified), the residual activity in [1] was found to be 13%; in test [2], 38.5%; in [3], 53.8%; in test [4], 0%; in test [5], 63.3%; in [6] it was 77.6%.

Regarding `COc1ccc(CCC(=O)O)cc1CNC(=O)c1ccc(C(F)(F)F)cc1`, the residual activity was found to be 112% in test [1], 104% in test [4], 102% in [5] and 104% in [6].

Regarding `CCC(Cc1ccc(OC)c(C(=O)NCc2ccc(C(F)(F)F)cc2)c1)C(=O)O` (stereo unspecified), the residual activity in test [1] worked out at 41%; in test [2] it was 8.9%; in [3] it was 102%; in [4] it was 15.2%; in test [5] it was 88.5%; in test [6], 82%.

Consider `CCC(Cc1ccc(F)c(C(=O)NCc2ccc(Oc3ccccc3)cc2)c1)C(=O)O` (stereo unspecified), for which the residual activity worked out at 63.2% in [1]; 6.8% in test [2]; 6.3% in test [3]; 106% in test [4]; 99.7% in [5]; 89.8% in [6].

In the case of `CC[C@@H](Cc1ccc(OC)c(C(=O)NCc2ccc(C(F)(F)F)cc2)c1)C(=O)O`, the concentration for half-maximal inhibition (IC50) in [7] was over 100 µM; in test [8] it was 24 µM; in test [9] it was over 100 µM. Also, in [3], the inhibition result is “Active”.

Turning to `CC[C@H](Cc1ccc(OC)c(C(=O)NCc2ccc(C(F)(F)F)cc2)c1)C(=O)O`, the IC50 is 34.2 µM in test [7], over 100 µM in test [8] and 37.8 µM in test [9]. Further, the inhibition result in test [1] and in test [4] was “Active” throughout.

On to `CCC(Cc1ccc(OC)c(CNC(=O)c2ccc(OCC(F)(F)F)cc2)c1)C(=O)O` (stereo unspecified), for which the residual activity in test [1] came to 136%; in test [2], 84%; in [4], 133%; in test [5], 119%; in [6] it was 118%.

Consider `CCC(Cc1ccc(OC)c(CNC(=O)c2ccc(C(F)(F)F)cc2)c1)C(=O)O` (stereo unspecified), for which the residual activity in test [2] worked out at 0%; in test [3], 31.2%; in test [5], 101%; in test [6], 89.5%.

For the compound `CC/C(=C\c1ccc(OC)c(C(=O)NCc2ccc(C(F)(F)F)cc2)c1)C(=O)O`, the IC50 in test [7] was 22.4 µM; in [8], over 100 µM; in test [9], 32.7 µM.

As to `CCC(Cc1ccc(OC)c(CNC(=O)c2ccc(Oc3ccccc3)cc2)c1)C(=O)O` (stereo unspecified), the residual activity in [1] stood at 119%; in test [4], 145%; in test [5] it was 103%; in test [6], 103%.

Turning to `COc1ccc(CC(C)C(=O)O)cc1CNC(=O)c1ccc(C(F)(F)F)cc1` (stereo unspecified), the residual activity was 132% in test [1], 139% in test [4], 109% in test [5] and 114% in test [6].

On to `CCC(Cc1ccc(F)c(C(=O)NCc2ccc(OC(F)(F)F)cc2)c1)C(=O)O` (stereo unspecified), for which the residual activity in test [1] came to 42.6%; in test [2] it was 0%; in test [3], 67.2%; in test [4], 55.7%; in test [5], 87.4%; in [6], 90.6%.

Turning to `CSc1ccc(/C=C2/C(C)=C(CC(=O)O)c3cc(F)ccc32)cc1` [SULINDAC SULFIDE], the IC50 in test [7] amounted to 82.5 µM; in test [8], 53 µM; in test [9], 215 µM. The residual activity in test [10] worked out at 60.3%; in [11], 98.4%; in test [12], 88.6%; in test [13], 97.1%; in test [14] it was 90.7%; in test [15], 43.9%.
